These results are taken from ChEMBL document CHEMBL1126336, “Benzopyranyl-cyanoguanidine potassium channel openers” (Bioorg Med Chem Lett, 1992).

Type in all cases: functional
Assay [1] is filed under the species Rattus norvegicus. Kind of assay: Vasorelaxant potency required to relax methoxamine contracted male Wistar Kyoto rat thoracic aorta.
Assay [2] relates to Rattus norvegicus. Kind of assay: Antihypertensive activity expressed as percent maximum decrease in blood pressure at 45 umol/kg for 0-6 hrs in male spontaneously hypertensive rats when administered perorally.
For assay [3], the system named is Rattus norvegicus. Kind of assay: Antihypertensive activity expressed as percent maximum decrease in blood pressure at 45 umol/kg for 12-18 hrs in male spontaneously hypertensive rats when administered perorally.
For assay [4], the system named is Rattus norvegicus. The assay is described as follows: Antihypertensive activity expressed as percent maximum decrease in blood pressure at 45 umol/kg for 18-24 hrs in male spontaneously hypertensive rats when administered perorally.
In assay [5] the test system is Rattus norvegicus. Kind of assay: Antihypertensive activity expressed as percent maximum decrease in blood pressure at 45 umol/kg for 6-12 hrs in male spontaneously hypertensive rats when administered perorally.

As usually defined, the IC50 is the point on the concentration scale where inhibition reaches its midpoint. Low readings indicate inhibition by little substance, high ones a need for much substance.

In turn, `CC/N=C(/NC#N)N[C@@H]1c2cc(C#N)ccc2OC(C)(C)[C@H]1O` gave an IC50 in the assay filed under Rattus norvegicus [1] of 380 nM.
For the molecule `CC(N/C(=N\C#N)Nc1ccncc1)C(C)(C)C` (centres undefined) [PINACIDIL ANHYDROUS], the Max decrease was 40% with Rattus norvegicus [2], 23% in the assay on Rattus norvegicus [3], 14% with Rattus norvegicus [4] and 21% in the assay on Rattus norvegicus [5].
`CC1(C)Oc2ccc(C#N)cc2[C@@H](/N=C(\NC#N)N2CCN(Cc3ccccc3)CC2)[C@@H]1O` gave an IC50 in the assay listed under Rattus norvegicus [1] of 13100 nM.
The same measure, in the same setting: the value for `CC1(C)Oc2ccc(C#N)cc2[C@@H](N2CCN=C2NC#N)[C@@H]1O` was 470 nM.
On the same count and under the same terms, the value for `CN(C)/C(=N/[C@@H]1c2cc(C#N)ccc2OC(C)(C)[C@H]1O)NC#N` was 490 nM.
`CC1(C)Oc2ccc(C#N)cc2[C@@H](/N=C(\NC#N)N2CCCC2)[C@@H]1O` displayed an IC50 in the assay filed under Rattus norvegicus [1] of 34 nM.
For the molecule `CC(C)/N=C(/NC#N)N[C@@H]1c2cc(C#N)ccc2OC(C)(C)[C@H]1O`, inhibition in the assay filed under Rattus norvegicus [1] was half-maximal at 660 nM (IC50).
`CC1(C)Oc2ccc(C#N)cc2[C@@H](/N=C(/N)NC#N)[C@@H]1O` displayed an IC50 in the assay filed under Rattus norvegicus [1] of 320 nM.
For the molecule `CC1(C)Oc2ccc(C#N)cc2[C@@H](N2CCCC2=O)[C@@H]1O` [CROMAKALIM], the Max decrease is 63% in the assay with Rattus norvegicus [2], 37% in the assay on Rattus norvegicus [3], 42% in the assay on Rattus norvegicus [4] and 35% in the assay with Rattus norvegicus [5].
`CN(C)CC/N=C(/NC#N)N[C@@H]1c2cc(C#N)ccc2OC(C)(C)[C@H]1O`: the IC50 in the assay listed under Rattus norvegicus [1] was above 100000 nM.
The same measure, in the same setting: the value for `CC1(C)Oc2ccc(C#N)cc2[C@@H](N2CCCN=C2NC#N)[C@@H]1O` was 120 nM.
The molecule `C/N=C(\NC#N)N[C@@H]1c2cc(C#N)ccc2OC(C)(C)[C@H]1O` yielded an IC50 in the assay filed under Rattus norvegicus [1] of 200 nM. For the same molecule, the Max decrease with Rattus norvegicus [2] turned out to be 46%; with Rattus norvegicus [3], 23%; with Rattus norvegicus [4], 15%; with Rattus norvegicus [5] it was 44%.
The molecule `COCC/N=C(/NC#N)N[C@@H]1c2cc(C#N)ccc2OC(C)(C)[C@H]1O` registered an IC50 in the assay filed under Rattus norvegicus [1] of 1690 nM.
`CCC(C)(C)/N=C(\NC#N)N[C@@H]1c2cc(C#N)ccc2OC(C)(C)[C@H]1O`: it took 29800 nM to reach half-maximal inhibition in the assay listed under Rattus norvegicus [1] (IC50).
